Measured values from patent EP4596574A1, “GLP-1/GCG/GIP TRIPLE-RECEPTOR AGONIST AND USE THEREOF” (Sunshine Lake Pharma Co., Ltd., priority 2022, dated 2024).
Starred links: 1 amine or outer side, 2 acyl side, 3 side chain; linkers in the order of their positions; H or OH if unused. Non-standard residues stand in square brackets, D forms with d. Residues, ends and D or L forms follow the SMILES beside them. Groups on a side chain read outwards from the residue. *: point of attachment. C18 diacid = O=C(O)CCCCCCCCCCCCCCCCC(=O)*; αMePhe(2-F) = C[C@](N)(Cc1ccccc1F)C(=O)O; γGlu = O=C(O)[C@H](CCC(=O)[*:2])N[*:1]; AEEA = NCCOCCOCC(=O)O; Aib = CC(C)(N)C(=O)O

Tests used:
Format in all cases: cell-based
GLP-1R = target: T1, GLP-1R (Homo sapiens, UniProt P43220); assay: In vitro cell activity, cAMP production in HEK293 cells expressing GLP-1R; conditions: HEK293-GLP-1R cells, cAMP; read-out: GLP-1R (EC50)
T1 construct: expressed in transfected cells; host or cells: HEK293 (HEK293-GLP-1R)
Experimental: (§1) After they were completely thawed within 1.5 minutes, the cells were added dropwise into a 15 mL centrifuge tube containing 8 mL of warm culture medium in a clean bench. The tubes were centrifuged at 900 rpm for 5 minutes, the supernatant was discarded, and the cells were resuspended in 1 mL of complete culture medium (by pipetting 15 times). 20 µL of the suspension was immediately taken and mixed with an equal volume of trypan blue. 20 µL was taken to count the number of live cells, and the cells were diluted to 4×10^5 cells/mL with complete culture medium. • 4) The 384-well plate was divided into GLP-1R cell, GCGR cell and GIPR cell areas. The cell suspension was added to the wells of the corresponding area at 5 µL per well using a 12-channel variable-channel adjustable dispenser. […] Then, the diluted cAMP-d2 working solution and anti-cAMP-crytate working solution were mixed evenly in a ratio of 1:1, and 10 µL was added to each well of the sample group. The wells were covered with white lids and placed at room temperature in the dark for 1 hour or at 4 °C overnight. • 6) The fluorescence values at 665 nm and 620 nm were detected in a multifunctional microplate reader. In GraphPad Prism 6, the signal ratio and sample concentration were nonlinearly fitted using a four-parameter equation to obtain the EC50 value.

GIPR = target: T2, GIPR (Homo sapiens, UniProt P48546); assay: In vitro cell activity, cAMP production in HEK293 cells expressing GIPR; conditions: HEK293-GIPR cells, cAMP; read-out: GIPR (EC50)
T2 construct: expressed in transfected cells; host or cells: HEK293 (HEK293-GIPR)
T2 sequence (P48546 22-466): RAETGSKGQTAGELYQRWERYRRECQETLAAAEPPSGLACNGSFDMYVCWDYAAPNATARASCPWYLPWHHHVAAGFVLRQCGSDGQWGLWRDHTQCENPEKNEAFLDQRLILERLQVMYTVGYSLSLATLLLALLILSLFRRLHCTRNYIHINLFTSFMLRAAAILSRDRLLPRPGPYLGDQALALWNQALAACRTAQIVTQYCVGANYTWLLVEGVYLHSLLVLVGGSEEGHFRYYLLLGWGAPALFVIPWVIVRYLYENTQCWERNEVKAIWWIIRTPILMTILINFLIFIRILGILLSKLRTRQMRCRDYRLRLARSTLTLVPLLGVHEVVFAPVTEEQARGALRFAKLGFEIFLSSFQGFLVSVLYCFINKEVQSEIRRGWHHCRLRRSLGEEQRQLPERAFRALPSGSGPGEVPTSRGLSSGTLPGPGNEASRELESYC
Experimental: as §1, with “The wells were covered with white lids and placed at room temperature in the dark for 1 hour or at 4 °C overnight. • 6) The fluorescence values at 665 nm and 620 nm were detected in a multifunctional microplate reader.” left out

GCGR = target: T3, GCGR (Homo sapiens, UniProt P47871); assay: In vitro cell activity, cAMP production in HEK293 cells expressing GCGR; conditions: HEK293-GCGR cells, cAMP; read-out: GCGR (EC50)
T3 construct: expressed in transfected cells; host or cells: HEK293 (HEK293-GCGR)
Experimental: as §1

T3 sequence (P47871 26-477, species assumed): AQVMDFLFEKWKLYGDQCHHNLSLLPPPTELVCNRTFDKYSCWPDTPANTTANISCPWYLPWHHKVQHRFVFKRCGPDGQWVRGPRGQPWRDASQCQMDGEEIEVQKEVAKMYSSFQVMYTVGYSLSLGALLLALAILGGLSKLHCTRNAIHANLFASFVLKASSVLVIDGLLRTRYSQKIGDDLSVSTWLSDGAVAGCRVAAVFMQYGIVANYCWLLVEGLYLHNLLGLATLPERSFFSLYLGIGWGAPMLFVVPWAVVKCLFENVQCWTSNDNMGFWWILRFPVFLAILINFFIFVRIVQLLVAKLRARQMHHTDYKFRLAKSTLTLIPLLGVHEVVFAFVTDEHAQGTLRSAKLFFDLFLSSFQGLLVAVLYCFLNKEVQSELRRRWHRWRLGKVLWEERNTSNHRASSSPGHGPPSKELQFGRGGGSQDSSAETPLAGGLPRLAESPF
T1 sequence (P43220 24-463, species assumed): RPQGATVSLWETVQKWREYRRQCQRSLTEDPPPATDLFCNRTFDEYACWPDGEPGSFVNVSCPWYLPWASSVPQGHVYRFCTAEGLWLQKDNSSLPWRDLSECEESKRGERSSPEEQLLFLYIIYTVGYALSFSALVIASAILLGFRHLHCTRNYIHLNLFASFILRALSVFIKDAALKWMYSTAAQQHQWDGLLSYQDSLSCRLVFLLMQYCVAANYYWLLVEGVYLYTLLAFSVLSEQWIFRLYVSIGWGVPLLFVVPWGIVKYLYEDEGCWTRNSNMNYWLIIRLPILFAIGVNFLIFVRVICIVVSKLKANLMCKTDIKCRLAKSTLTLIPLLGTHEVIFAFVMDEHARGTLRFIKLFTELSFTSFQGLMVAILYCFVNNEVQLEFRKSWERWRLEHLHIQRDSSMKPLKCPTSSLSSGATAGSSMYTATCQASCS

SMILES | EC50 (GLP-1R) | EC50 (GIPR) | EC50 (GCGR)
CC[C@H](C)[C@H](NC(=O)[C@H](Cc1ccccc1)NC(=O)[C@H](C)NC(=O)[C@H](CCC(N)=O)NC(=O)[C@H](CCC(N)=O)NC(=O)[C@H](CCCNC(=N)N)NC(=O)[C@@H](NC(=O)[C@H](CCCNC(=N)N)NC(=O)[C@H](CC(=O)O)NC(=O)[C@H](CCCCNC(=O)COCCOCCNC(=O)CC[C@H](NC(=O)CCCCCCCCCCCCCCCCC(=O)O)C(=O)O)NC(=O)[C@H](CC(C)C)NC(=O)[C@@H](NC(=O)[C@H](CO)NC(=O)[C@H](Cc1ccc(O)cc1)NC(=O)[C@H](CC(=O)O)NC(=O)[C@H](CO)NC(=O)[C@@H](NC(=O)[C@](C)(Cc1ccccc1F)NC(=O)[C@@H](NC(=O)CNC(=O)[C@H](CCC(N)=O)NC(=O)C(C)(C)NC(=O)[C@@H](N)Cc1ccc(O)cc1)[C@@H](C)O)[C@@H](C)O)[C@@H](C)CC)[C@@H](C)CC)C(=O)N[C@@H](CCC(=O)O)C(=O)N[C@@H](Cc1ccc(O)cc1)C(=O)N[C@@H](CC(C)C)C(=O)N[C@@H](CC(C)C)C(=O)N[C@@H](CCC(=O)O)C(=O)NCC(=O)NCC(=O)N1CCC[C@H]1C(=O)N[C@@H](CO)C(=O)N[C@@H](CO)C(=O)NCC(=O)N[C@@H](C)C(=O)N1CCC[C@H]1C(=O)N1CCC[C@H]1C(=O)N1CCC[C@H]1C(=O)N[C@@H](CO)C(=O)O [HEC-PT146] (H-Y[Aib]QGT[αMePhe(2-F)]TSDYSILK([AEEA-γGlu-C18 diacid])DRIRQQAFIEYLLEGGPSSGAPPPS-OH) | 0.365 nM | 0.105 nM | 0.121 nM
CC[C@H](C)[C@H](NC(=O)[C@H](Cc1ccccc1)NC(=O)[C@H](CCC(=O)O)NC(=O)[C@H](CCC(N)=O)NC(=O)[C@H](CCC(N)=O)NC(=O)[C@H](CCCNC(=N)N)NC(=O)[C@H](CCCCNC(=O)COCCOCCNC(=O)CC[C@H](NC(=O)CCCCCCCCCCCCCCCCCCC(=O)O)C(=O)O)NC(=O)[C@H](CCCNC(=N)N)NC(=O)[C@H](CC(=O)O)NC(=O)[C@H](CC(C)C)NC(=O)[C@H](CC(C)C)NC(=O)[C@@H](NC(=O)[C@H](CO)NC(=O)[C@H](Cc1ccc(O)cc1)NC(=O)[C@H](CC(=O)O)NC(=O)[C@H](CO)NC(=O)[C@@H](NC(=O)[C@](C)(Cc1ccccc1F)NC(=O)[C@@H](NC(=O)CNC(=O)[C@H](CCC(N)=O)NC(=O)C(C)(C)NC(=O)[C@@H](N)Cc1ccc(O)cc1)[C@@H](C)O)[C@@H](C)O)[C@@H](C)CC)C(=O)N[C@@H](CCC(=O)O)C(=O)N[C@@H](Cc1c[nH]c2ccccc12)C(=O)N[C@@H](CC(C)C)C(=O)N[C@@H](CC(C)C)C(=O)N[C@@H](C)C(=O)NCC(=O)NCC(=O)N1CCC[C@H]1C(=O)N[C@@H](CO)C(=O)N[C@@H](CO)C(=O)NCC(=O)N[C@@H](C)C(=O)N1CCC[C@H]1C(=O)N1CCC[C@H]1C(=O)N1CCC[C@H]1C(=O)N[C@@H](CO)C(=O)O [HEC-PT127] | 0.127 nM | 0.0465 nM | 0.0707 nM
CC[C@H](C)[C@H](NC(=O)[C@H](Cc1ccccc1)NC(=O)[C@H](C)NC(=O)[C@H](CCCNC(=N)N)NC(=O)[C@H](CCC(N)=O)NC(=O)[C@H](C)NC(=O)[C@H](CCCCNC(=O)COCCOCCNC(=O)CC[C@H](NC(=O)CCCCCCCCCCCCCCCCCCC(=O)O)C(=O)O)NC(=O)[C@H](CCC(=O)O)NC(=O)[C@H](CC(=O)O)NC(=O)[C@H](CC(C)C)NC(=O)[C@H](CC(C)C)NC(=O)[C@@H](NC(=O)[C@H](CO)NC(=O)[C@H](Cc1ccc(O)cc1)NC(=O)[C@H](CC(=O)O)NC(=O)[C@H](CO)NC(=O)[C@@H](NC(=O)[C@](C)(Cc1ccccc1F)NC(=O)[C@@H](NC(=O)CNC(=O)[C@H](Cc1c[nH]cn1)NC(=O)C(C)(C)NC(=O)[C@@H](N)Cc1ccc(O)cc1)[C@@H](C)O)[C@@H](C)O)[C@@H](C)CC)C(=O)N[C@@H](CCC(=O)O)C(=O)N[C@@H](Cc1ccc(O)cc1)C(=O)N[C@@H](CC(C)C)C(=O)N[C@@H](CC(C)C)C(=O)N[C@@H](CCC(=O)O)C(=O)NCC(=O)NCC(=O)N1CCC[C@H]1C(=O)N[C@@H](CO)C(=O)N[C@@H](CO)C(=O)NCC(=O)N[C@@H](C)C(=O)N1CCC[C@H]1C(=O)N1CCC[C@H]1C(=O)N1CCC[C@H]1C(=O)N[C@@H](CO)C(=O)O [HEC-PT84] | 0.291 nM | 0.232 nM | 0.306 nM
CC[C@H](C)[C@H](NC(=O)[C@H](Cc1ccccc1)NC(=O)[C@H](C)NC(=O)[C@H](CCC(N)=O)NC(=O)[C@H](CCC(N)=O)NC(=O)[C@H](CCCNC(=N)N)NC(=O)[C@H](CCCCNC(=O)COCCOCCNC(=O)CC[C@H](NC(=O)CCCCCCCCCCCCCCCCCCC(=O)O)C(=O)O)NC(=O)[C@H](CCCNC(=N)N)NC(=O)[C@H](CC(=O)O)NC(=O)[C@H](CC(C)C)NC(=O)[C@H](CC(C)C)NC(=O)[C@@H](NC(=O)[C@H](CO)NC(=O)[C@H](Cc1ccc(O)cc1)NC(=O)[C@H](CC(=O)O)NC(=O)[C@H](CO)NC(=O)[C@@H](NC(=O)[C@](C)(Cc1ccccc1F)NC(=O)[C@@H](NC(=O)CNC(=O)[C@H](CCC(N)=O)NC(=O)C(C)(C)NC(=O)[C@@H](N)Cc1ccc(O)cc1)[C@@H](C)O)[C@@H](C)O)[C@@H](C)CC)C(=O)N[C@@H](CCC(=O)O)C(=O)N[C@@H](Cc1ccc(O)cc1)C(=O)N[C@@H](CC(C)C)C(=O)N[C@@H](CC(C)C)C(=O)N[C@@H](C)C(=O)NCC(=O)NCC(=O)N1CCC[C@H]1C(=O)N[C@@H](CO)C(=O)N[C@@H](CO)C(=O)NCC(=O)N[C@@H](C)C(=O)N1CCC[C@H]1C(=O)N1CCC[C@H]1C(=O)N1CCC[C@H]1C(=O)N[C@@H](CO)C(=O)O [HEC-PT128] | 0.38 nM | 0.0608 nM | 0.128 nM
CC[C@H](C)[C@H](NC(=O)[C@H](CCC(=O)O)NC(=O)[C@H](CC(=O)O)NC(=O)[C@H](CC(C)C)NC(=O)[C@H](CC(C)C)NC(=O)[C@@H](NC(=O)[C@H](CO)NC(=O)[C@H](Cc1ccc(O)cc1)NC(=O)[C@H](CC(=O)O)NC(=O)[C@H](CO)NC(=O)[C@@H](NC(=O)[C@](C)(Cc1ccccc1F)NC(=O)[C@@H](NC(=O)CNC(=O)[C@H](CCC(N)=O)NC(=O)C(C)(C)NC(=O)[C@@H](N)Cc1ccc(O)cc1)[C@@H](C)O)[C@@H](C)O)[C@@H](C)CC)C(=O)N[C@@H](C)C(=O)N[C@@H](CCC(N)=O)C(=O)N[C@@H](CCCCNC(=O)COCCOCCNC(=O)COCCOCCNC(=O)CC[C@H](NC(=O)CCCCCCCCCCCCCCCCCCC(=O)O)C(=O)O)C(=O)N[C@@H](C)C(=O)N[C@@H](Cc1ccccc1)C(=O)N[C@H](C(=O)N[C@@H](CCC(=O)O)C(=O)N[C@@H](Cc1ccc(O)cc1)C(=O)N[C@@H](CC(C)C)C(=O)N[C@H](C(=O)N[C@@H](C)C(=O)NCC(=O)NCC(=O)N1CCC[C@H]1C(=O)N[C@@H](CO)C(=O)N[C@@H](CO)C(=O)NCC(=O)N[C@@H](C)C(=O)N1CCC[C@H]1C(=O)N1CCC[C@H]1C(=O)N1CCC[C@H]1C(=O)N[C@@H](CO)C(=O)O)[C@@H](C)CC)[C@@H](C)CC [HEC-PT99] | 0.278 nM | 0.176 nM | 12.3 nM
